Columns and labels:
[1] = system: protoplasts of SEC-derived cell suspension culture of cv. Bobwhite MPB26RH; experiment: basal tolerance to IMAZAMOX of protoplast agarose bead-type cultures (calli growth); type: cell-based, Triticum aestivum; details: 2 weeks
Source text: IMAZAMOX® selection conditions are optimized using protoplasts derived from somatic embryogenic callus (SEC)-derived cell suspension culture of the wheat line cv. Bobwhite MPB26RH. While protoplasts derived from Bobwhite MPB26RH are non-totipotent (i.e., cannot be used to regenerate entire plants), the selection conditions established for enriching for events expressing the AHAS (653N) mutation are expected to be transferable to any protoplast-based transformation system based on a totipotent wheat genotype, which those in the art would recognize. The experiments conducted establish the basal tolerance of the wild-type donor wheat line cv. Bobwhite MPB26RH (S653/S653 genotype, which confers susceptibility to imidazolinones) to IMAZAMOX®. The use of IMAZAMOX® selection conditions stronger than basal tolerance will strongly enrich for transformed cells expressing the AHAS (S653N) mutation.
Further transformation methods are applicable. For example a cell suspension culture for wheat line cv. Bobwhite MPB26RH can be established. Somatic embryogenic callus (SEC) is induced from immature zygotic embryos of wheat line cv. […]
The basal tolerance of wheat line cv. Bobwhite MPB26RH to IMAZAMOX® is determined by incubating the agarose bead-type cultures in media supplemented with 0, 50, 100, 200, 400 and 600 nM IMAZAMOX® and assessing the rate of calli growth after 2 weeks.

[2] = system: regenerated plants of cv. Bobwhite MPB26RH; experiment: basal tolerance to IMAZAMOX at the plant rooting stage; type: in vivo, Triticum aestivum; details: all concentrations tested (100-500 nM), 3 weeks
Description: The basal tolerance of the donor wheat line cv. Bobwhite MPB26RH to IMAZAMOX® at the plant rooting stage was determined as follows: Scutella of immature zygotic embryos from the donor wheat line were isolated as described previously and placed in 10 cm PETRI™ dishes containing CIM medium. Somatic embryogenic callus was allowed to form by incubating at 24° C. in the dark for 4 weeks. The SEC was transferred to 10 cm PETRI™ dishes containing DRM medium and incubated for 2 weeks at 24° C. under a 16/8 (light/dark) hour photoperiod to allow plant regeneration to take place. Regenerated plants were transferred to 10 cm PETRI™ dishes containing RM medium supplemented with 0, 100, 200, 300, 400, 500 nM IMAZAMOX®, respectively. Twenty regenerated plants were placed in each PETRI™ dish. A total of 60 regenerated plants were tested for basal tolerance response at each IMAZAMOX® concentration. After incubation for 3 weeks at 24° C. under a 16/8 (light/dark) hour photoperiod in a growth room, the root formation response was recorded.

[3] = system: scutella of cv. Bobwhite MPB26RH and cv. Clearfield Janz (N653/N653); experiment: basal tolerance/resistance to IMAZAMOX at the callus induction stage; type: cell-based, Triticum aestivum
Description: The basal tolerance of the donor wheat line cv. Bobwhite MPB26RH and basal resistance of cv. Clearfield Janz (N653/N653) genotype to IMAZAMOX® at the callus induction stage was determined as follows: Scutella of immature zygotic embryos from each wheat line were isolated as described previously and placed in 10 cm PETRI™ dishes containing CIM medium supplemented with 0, 50, 100, 200, 300, 400 and 500 nM IMAZAMOX® respectively. Twenty scutella were placed in each PETRI™ dish. A total of 60 scutella from each of the donor wheat line cv. Bobwhite MPB26RH and cv. Clearfield Janz genotype were tested for basal tolerance and basal resistance response, respectively, at each IMAZAMOX® concentration. After incubation at 24° C. in the dark for 4 weeks, the amount of somatic embryogenic callus formation (SEC) at each IMAZAMOX® concentration was recorded. […] Bobwhite MPB26RH was reduced by about 70% at 100 nM IMAZAMOX®, compared to untreated samples. Callus formation for the cv. Clearfield Janz genotype was unaffected, relative to the untreated control, at any IMAZAMOX® concentrations tested.

[4] = system: somatic embryogenic callus of cv. Bobwhite MPB26RH; experiment: basal tolerance to IMAZAMOX at the plant regeneration stage; type: cell-based, Triticum aestivum; details: 200 nM, 2 weeks, compared to untreated samples
Description: The basal tolerance of the donor wheat line cv. Bobwhite MPB26RH to IMAZAMOX® at the plant regeneration stage was determined as follows: Scutella of immature zygotic embryos from the donor wheat line were isolated as described previously and placed in 10 cm PETRI™ dishes containing CIM medium. Somatic embryogenic callus was allowed to form by incubating at 24° C. in the dark for 4 weeks. The SEC was transferred to 10 cm PETRI™ dishes containing DRM medium supplemented with 0, 100, 200, 300, 400, 500 and 1000 nM IMAZAMOX® respectively. Twenty CIM were placed in each PETRI™ dish. A total of 60 CIM were tested for basal tolerance response at each IMAZAMOX® concentration. After incubation for 2 weeks at 24° C. under a 16/8 (light/dark) hour photoperiod in a growth room, the regeneration response was recorded.

SMILES: COCc1cnc(C2=NC(C)(C(C)C)C(=O)N2)c(C(=O)O)c1 (centres unmarked) [IMAZAMOX]
- concentrations that impede calli development [1]: higher than 200 nM
- root formation compared to untreated samples [2]: severely restricted
- reduction of SEC formation ([3]; cv. Bobwhite MPB26RH, 100 nM, 4 weeks, compared to untreated samples): about 70%
- callus formation relative to untreated control ([3]; cv. Clearfield Janz (N653/N653), any concentration tested (50-500 nM)): unaffected
- reduction of plant regeneration [4]: about 80%

From patent US10501748B2, “Methods and compositions for integration of an exogenous sequence within the genome of plants” (Dow AgroSciences LLC, priority 2013, dated 2019)
